Literature values in patent US20170252311A1, “SPHINGOSINE KINASE INHIBITORS AND CERAMIDE FOR MAINTENANCE THERAPY OF GLIOBLASTOMA” (SignPath Pharma Inc., priority 2016, published 2017).
Read-outs that look alike come from different tables or passages of the source. Values belong to the compound of their own block, whether it stands above or below them.

Experiments:
[1] = system: prostate cancer cell lines and TRAMP-C2 xenografts
[2] = system: xenograft prostate cancer models
SK (sphingosine kinase) = conditions: arrow down = decrease, arrow up = increase (not defined in patent)
[3] = biological target: GCS (glucosylceramide synthase) (Homo sapiens, UniProt Q16739)
GCS (glucosylceramide synthase), sequence (Q16739 whole entry, species assumed): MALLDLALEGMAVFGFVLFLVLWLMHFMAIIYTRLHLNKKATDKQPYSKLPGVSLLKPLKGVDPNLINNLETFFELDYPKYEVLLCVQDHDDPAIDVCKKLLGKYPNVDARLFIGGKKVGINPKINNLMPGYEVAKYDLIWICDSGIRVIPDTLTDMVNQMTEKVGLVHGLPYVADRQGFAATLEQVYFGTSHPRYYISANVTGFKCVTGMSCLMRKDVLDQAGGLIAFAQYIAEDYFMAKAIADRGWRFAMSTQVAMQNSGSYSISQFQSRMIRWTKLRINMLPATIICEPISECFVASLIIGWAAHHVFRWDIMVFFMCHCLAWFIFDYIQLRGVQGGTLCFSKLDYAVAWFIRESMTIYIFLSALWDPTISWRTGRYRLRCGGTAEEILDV

[4] = biological target: T1, Acid Cer (Acid ceramidase) (Homo sapiens, UniProt Q13510)
T1 sequence (Q13510 22-395): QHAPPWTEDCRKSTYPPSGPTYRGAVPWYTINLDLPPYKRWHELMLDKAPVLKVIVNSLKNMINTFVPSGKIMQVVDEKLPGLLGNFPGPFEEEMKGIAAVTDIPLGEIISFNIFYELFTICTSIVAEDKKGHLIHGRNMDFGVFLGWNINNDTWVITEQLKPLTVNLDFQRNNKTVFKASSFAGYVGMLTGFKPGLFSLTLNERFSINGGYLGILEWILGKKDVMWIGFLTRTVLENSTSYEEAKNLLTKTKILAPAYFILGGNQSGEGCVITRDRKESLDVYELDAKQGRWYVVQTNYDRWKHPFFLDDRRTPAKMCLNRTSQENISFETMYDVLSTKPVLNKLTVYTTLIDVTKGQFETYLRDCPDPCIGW

[5] = system: Cer Syn (ceramide synthase)
[6] = system: SPT (serine palmitoyltransferase)
tumor = conditions: single agent
[7] = system: GTP cyclohydrolase (GTPCH); conditions: C6 glioma cell line
[8] = system: LN229 and U373 glioblastoma cell lines, non-established human GBM6 cells, and GBM xenografts
protein kinase C = conditions: selectivity
protein kinase B = conditions: selectivity
[9] = system: human leukemic cell lines and acute myelogenous leukemia xenografts; conditions: human leukemic cell lines and AML xenografts
[10] = system: other serine/threonine kinases; conditions: selectivity
[11] = system: LN229 intracranial xenografts
SK2 = SK2 (Homo sapiens, UniProt Q9NRA0); conditions: selectivity
SK2, sequence (Q9NRA0 whole entry): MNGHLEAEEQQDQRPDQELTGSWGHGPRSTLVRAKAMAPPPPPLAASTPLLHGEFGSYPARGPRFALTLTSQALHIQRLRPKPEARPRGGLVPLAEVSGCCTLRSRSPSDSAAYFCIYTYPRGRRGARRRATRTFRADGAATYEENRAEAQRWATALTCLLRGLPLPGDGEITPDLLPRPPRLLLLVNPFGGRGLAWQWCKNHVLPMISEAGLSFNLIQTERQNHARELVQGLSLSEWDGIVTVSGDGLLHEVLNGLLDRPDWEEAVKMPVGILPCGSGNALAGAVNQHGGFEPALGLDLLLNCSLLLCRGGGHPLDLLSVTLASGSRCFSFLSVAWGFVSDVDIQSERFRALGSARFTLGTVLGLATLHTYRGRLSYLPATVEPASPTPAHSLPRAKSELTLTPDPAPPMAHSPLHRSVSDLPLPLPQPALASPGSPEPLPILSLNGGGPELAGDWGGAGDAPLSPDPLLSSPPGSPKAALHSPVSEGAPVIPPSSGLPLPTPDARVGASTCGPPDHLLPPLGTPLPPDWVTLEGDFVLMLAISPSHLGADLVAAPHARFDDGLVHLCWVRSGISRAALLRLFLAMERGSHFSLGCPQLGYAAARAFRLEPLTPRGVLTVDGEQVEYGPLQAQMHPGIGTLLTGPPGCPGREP

[12] = system: JC mammary adenocarcinoma cells; conditions: syngeneic BALB/c mouse solid tumor model of JC cells
[13] = system: JC mouse mammary adenocarcinoma cell line
[14] = system: U87MG, U1242MG, M059K cell lines; conditions: in all three lines

Compound: O=C(NCc1ccncc1)C12CC3CC(C1)CC(c1ccc(Cl)cc1)(C3)C2 [ABC294640, 3-(4-chlorophenyl)-adamantane-1-carboxylic acid (pyridin-4-ylmethyl) amide]
cell viability [1]: reduced cell viability | expression of c-myc [1]: decreased expression of c-myc | cancer growth [2]: significantly blocked cancer growth

Compound: CCN(CC)CCCC(C)Nc1ccnc2cc(Cl)ccc12 (stereo not drawn) [Chloroquine]
Sphingolipid Enzymes Affected: SM Syn (SM Syn): ↓SM Syn | Sphingolipid Enzymes Affected: SMase (SMase (Sphingomyelinase)): ↑↓Smase | Sphingolipid Enzymes Affected: SK (SK (sphingosine kinase)): ↓SK | Sphingolipid Enzymes Affected: GCS [3]: ↑GCS | Sphingolipid Enzymes Affected: Acid Cer [4]: ↓Acid Cer

Compound: OC(c1cc(C(F)(F)F)nc2c(C(F)(F)F)cccc12)C1CCCCN1 (stereo not drawn) [Mefloquine]
Sphingolipid Enzymes Affected: SM Syn (SM Syn): ↓SM Syn | Sphingolipid Enzymes Affected: SMase (SMase (Sphingomyelinase)): ↑↓Smase | Sphingolipid Enzymes Affected: SK (SK (sphingosine kinase)): ↓SK | Sphingolipid Enzymes Affected: GCS [3]: ↑GCS | Sphingolipid Enzymes Affected: Acid Cer [4]: ↓Acid Cer

Compound: CCCCCCCCCCCCC/C=C/[C@@H](O)[C@H](CO)[N+](C)(C)C [N,N,N-trimethylsphingosine]
anti-tumor activity alone (tumor): did not appear to have significant anti-tumor activity alone

Compound: CCCCCCCCCCCCC/C=C/[C@@H](O)[C@H](CO)N(C)C [N,N-dimethylshingosine]
tumor necrosis factor-α induced GTP cyclohydrolase (GTPCH) activity [7]: Suppressed tumor necrosis

Compound: O=C(NN=Cc1c(O)ccc2ccccc12)c1cc(-c2ccc3ccccc3c2)n[nH]1 [SKI-I, 5-naphthalen-2-yl-2H-pyrazole-3-carboxylic acid (2-hydroxy-naphthalen-1-ylmethylene)-hydrazide]
anti-tumor activity [12]: anti-tumor activity | anti-tumor activity [13]: anti-tumor activity

Compound: Oc1ccc(Nc2nc(-c3ccc(Cl)cc3)cs2)cc1 [SKI-II, 4-[4-(4-chloro-phenyl)-thiazol-2-ylamino]-phenol]
cellular proliferation ([14]; listed as 2-(p-Hdroxyanilino)-4-(p-chlorophenyl)thiazole): Decreased cellular proliferation | cellular proliferation ([14]; listed as 2-(p-Hydroxyanilino)-4-(p-chlorophenyl)thiazole): significantly decreased the rate of proliferation | anti-tumor activity [12]: especially effective | cancer cell death (U251MG, D54MG cell lines; TMZ resistant GBM cell lines U251 and D54MG): promote cancer cell death | activity in cell lines made resistant to TMZ (U251MG, D54MG cell lines; U251MG, D54MG): Active in cell lines mde resistant | cell cycle (accumulation of cells at G1) (U98G cell line): accumulation of cells at G1. | proliferation (U98G cell line): Decreased proliferation. Caused | expression of urokinase plasminogen activator (U118MG cell line): Blocked | invasiveness (U118MG cell line): Decreased invasiveness | anti-tumor activity [13]: anti-tumor activity

Compound: O=C1C(=Cc2ccc(O)c(O)c2)Oc2ccccc21 [SKI-V, 2-(3,4-dihydroxy-benzylidene)-benzofuran-3-one]
anti-tumor activity [12]: anti-tumor activity | anti-tumor activity [13]: anti-tumor activity

Compound: CCCCCCCCCCCCCCC[C@H](O)[C@@H](N)CO [safingol, D,L-threodihydrosphingosine]
anti-tumor activity alone (tumor): did not appear to have significant anti-tumor activity alone

Compound: CC/C(=C(\c1ccccc1)c1ccc(OCCN(C)C)cc1)c1ccccc1 [tamoxifen]
Sphingolipid Enzymes Affected: Acid Cer [4]: decreases acid ceramidase

Further lines, with some results ahead:

Sphingolipid Enzymes Affected: SK (SK (sphingosine kinase)): ↓SK | Sphingolipid Enzymes Affected: Cer Syn [5]: ↑Cer Syn | Sphingolipid Enzymes Affected: SPT [6]: ↑SPT
Compound: COc1cc(/C=C/C(=O)CC(=O)/C=C/c2ccc(O)c(OC)c2)ccc1O [Curcumin]

Sphingolipid Enzymes Affected: SK (SK (sphingosine kinase)): ↓SK | Sphingolipid Enzymes Affected: Cer Syn [5]: ↑Cer Syn
Compound: Cc1ccc(NC(=O)c2ccc(CN3CCN(C)CC3)cc2)cc1Nc1nccc(-c2cccnc2)n1 [Imatinib]

Sphingolipid Enzymes Affected: SK (SK (sphingosine kinase)): ↓SK | Sphingolipid Enzymes Affected: Cer Syn [5]: ↑Cer Syn
Compound: Cc1cn(-c2cc(NC(=O)c3ccc(C)c(Nc4nccc(-c5cccnc5)n4)c3)cc(C(F)(F)F)c2)cn1 [Nilotinib]

Sphingolipid Enzymes Affected: SK (SK (sphingosine kinase)): ↓SK | Sphingolipid Enzymes Affected: Cer Syn [5]: ↑Cer Syn | Sphingolipid Enzymes Affected: SPT [6]: ↑SPT
Compound: Oc1ccc(C=Cc2cc(O)cc(O)c2)cc1 [Resveratrol]

inhibition of protein kinase C (protein kinase C): does not inhibit | inhibition of protein kinase B (protein kinase B): does not inhibit | inhibition of SK2 (SK2): does not inhibit
Compound: CCCCCc1ccc(/C=C/[C@H](O)[C@@H](CO)NC)cc1 [SK1-I, (2R,3S,4E)-N-methyl-5-(4′-pentylphenyl)-2-aminopent-4-ene-1,3-diol]
apoptosis [8]: prompts apoptosis | protein kinase B (Akt) signaling [8]: inhibits protein kinase B (Akt) signaling | tumor development [8]: suppresses tumor development | apoptosis [9]: induced apoptosis | tumor growth [9]: blocked tumor growth | cell growth (GBM6 cell lines): Reduced cell growth | epidermal growth factor-stimulated phosphorylation of Akt (GBM6 cell lines): Reduced | cell growth (LN229, U373 cell lines): Inhibited cell growth | migration (LN229, U373 cell lines): Inhibited | inhibition of other serine/threonine kinases [10]: does not inhibit | angiogenesis [11]: Reduced | apoptosis [11]: Caused apoptosis | tumor growth rate [11]: Reduced tumor growth rate.
